Reference: patent US20050197402A1 (priority 2004, published 2005)

Experiment: Modulated differential scanning calorimetry (MDSC/DSC), thermal stability / decomposition
Assay type: physicochemical
Details: for onset of decomposition: MDSC data
From the text: Differential Scanning Calorimetry (DSC) measures heat flow as a function of time or temperature and is used to study material transformation whether they be physical, such as phase changes, or chemical, such as decomposition. There are several parameters that can be obtained from a DSC thermogram. In the present work, the focus was on the onset temperature, the temperature of the peak minimum, and the peak width. DSC information is useful in understanding the purity and nature of material. For example, when a pure crystalline substance melts, the melting point is sharp. In DSC, that sharpness is shown by a narrow melting peak in the thermogram. If there are impurities or defects in the crystalline nature, the melting takes place at lower temperatures and over a larger range of temperatures. In DSC, the impurities are shown by a lower onset temperature and peak temperature, and a broader peak in the thermogram. When there are discrete impurities, they can melt at their melting points. In DSC, discrete impurities can be shown by additional peaks in the thermogram.
While a decomposition curve is usually broader and can be more complicated, some of the same phenomena are seen as with melting. Impurities and defects will cause broader and lower temperature peaks. Discrete impurities can show their own decomposition peaks.
These were made at slightly different stoichiometries. The onset temperature, the temperature at peak minimum, and the peak width are labeled.

[1] = modulated DSC thermogram, spray-dried polymorph of PMC2, K:Mg ratio less than 4.0

Row | Compound | onset of decomposition | endothermic peak for decomposition: onset temperature [1] | endothermic peak for decomposition: peak minimum temperature [1] | endothermic peak for decomposition: peak width [1] | DSC decomposition behaviour (in words) (spray-dried sample in a vented pan, compared to sample dried in an oven or at room temperature)
1 | O=C([O-])CC(O)(CC(=O)[O-])C(=O)[O-].O=C([O-])CC(O)(CC(=O)[O-])C(=O)[O-].[K+].[K+].[K+].[K+].[Mg+2] [PMC2, potassium magnesium citrate] | approximately 310 °C | greater than 320 °C | greater than 327 °C | less than 9 °C | 
2 | O=C([O-])CC(O)(CC(=O)[O-])C(=O)[O-].O=C([O-])CC(O)(CC(=O)[O-])C(=O)[O-].[K+].[K+].[K+].[K+].[Mg+2] [PMC, potassium magnesium citrate] |  |  |  |  | decomposed at a much lower temperature and with a broader decomposition peak
3 | O=C([O-])CC(O)(CC(=O)[O-])C(=O)[O-].[K+].[K+].[K+] [potassium citrate, reference compound] | 260 °C |  |  |  | 
4 | magnesium citrate [reference compound] | 250 °C |  |  |  | 
